Data published in patent publication US10421715B2, “Pleuromutilin derivative having 2-amino phenyl mercaptan side chain as well as preparation method and application thereof” (SOUTH CHINA AGRICULTURAL UNIVERSITY, priority 2016, dated 2019).
In brackets after ≈: the same amount, converted by molar mass. Where two headings read alike, the source gives them in different places.

Columns and labels:
Assay in all cases: In-vitro bacteriostatic experiment, two-fold agar dilution MIC
Type in all cases: cell-based
[1] = system: Staphylococcus aureus ATCC29213; details: for MIC: Staphylococcus aureus, read-out: MIC S. aureus ATCC29213
Method: (§1) Minimum inhibitory concentrations (MIC) of a series of compounds obtained in the disclosure were measured by using a two-fold agar dilution method. An experimental control drug selected valnemulin, and valnemulin belongs to pleuromutilin antibiotics and is the most widely applied veterinary antibiotic in the pleuromutilin antibiotics at present. By using a multi-point inoculator, bacteria solution was inoculated into a culture dish containing drugs having different concentrations at a bacteria inoculating amount of 10^6 CFU/ml. A result was observed after incubation for 24 hours at 37° C., and the concentration of a compound in a culture dish without bacteria served as the minimum inhibitory concentration (MIC) of this compound.
(§2) Strains used in the experiment were E. Coli ATCC25922, Staphylococcus aureus ATCC29213, methicillin-resistant staphylococcus ATCC43300 and mycoplasma gallisepticum S6.
(§3) 25.6 mg of synthesized target compound was precisely weighed to be placed in 10 mL of volumetric flask and dissolved with a small amount of N,N-dimethylformamide and then a volume was metered with N,N-dimethylformamide to 10 mL, so as to prepare 2560 μg/mL stock solution. In addition, 25.6 mg of pleuromutilin, tiamulin, valnemulin and retapamulin were respectively and precisely weighed to be placed in 10 ml of volumetric flask, and a volume was metered with N,N-dimethylformamide to 10 mL, so as to prepare 2560 μg/mL control stock solution.
(§4) The control stock solution was diluted in a culture dish with a doubling dilution method, each culture dish contained 1 ml of medicine liquid, the medicine liquid is diluted to 20 ml with molten MH agar, so that final concentrations of subject compounds in a series of culture dishes were respectively 64, 32, 16, 8, 4, 2, 1, 0.5, 0.25, 0.125 and 0.0625 μg/ml.

[2] = system: mycoplasma gallisepticum S6; details: for MIC: Mycoplasmoides gallisepticum, read-out: MIC S6
Method: as §1, §2, §3, §4

E. Coli ATCC25922 = details: for MIC: Escherichia coli, read-out: MIC E. coli ATCC25922
Method: as §1, §2, §3, §4

[3] = system: methicillin-resistant staphylococcus ATCC43300; details: for MIC: read-out: MIC MRSA ATCC43300
Method: as §1, §2, §3, §4

[4] = agar dilution, 10^6 CFU/ml, 24 hours at 37° C.
[5] = mycoplasma gallisepticum S6, agar dilution, 10^6 CFU/ml, 24 hours at 37° C.
[6] = ATCC29213, agar dilution, 10^6 CFU/ml, 24 hours at 37° C.
[7] = ATCC25922, agar dilution, 10^6 CFU/ml, 24 hours at 37° C.

Structure (SMILES)	MIC S. aureus ATCC29213 [1, 4] [µg/mL]	MIC S6 [2, 5] [µg/mL]	MIC E. coli ATCC25922 (E. Coli ATCC25922; [4]) [µg/mL]	MIC MRSA ATCC43300 [3, 4] [µg/mL]	also measured
C=C[C@]1(C)C[C@@H](OC(=O)CSc2ccccc2NC(=O)c2ccccc2C)[C@]2(C)[C@H](C)CC[C@]3(CCC(=O)[C@H]32)[C@@H](C)[C@@H]1O [Compound 1]	0.25 (≈ 0.414 µM)	0.125 (≈ 0.207 µM)	>64	0.25 (≈ 0.414 µM)	
C=CC1(C)CC(OC(=O)CSc2ccccc2NC(=O)c2cccc(C)c2)C2(C)C(C)CCC3(CCC(=O)C32)C(C)C1O (centres unmarked) [Compound 2, 22-O-[2-(3-methylbenzamnido)phenyl] thioacetyl valnemulin]	1 (≈ 1.66 µM)	0.25 (≈ 0.414 µM)	>64	0.5 (≈ 0.828 µM)	
C=CC1(C)CC(OC(=O)CSc2ccccc2NC(=O)c2ccc(C)cc2)C2(C)C(C)CCC3(CCC(=O)C32)C(C)C1O (centres unmarked) [Compound 3, 22-O-[2-(4-methylbenzamido)phenyl] thioacetyl valnemulin]	0.5 (≈ 0.828 µM)	0.25 (≈ 0.414 µM)	>64	0.5 (≈ 0.828 µM)	
C=CC1(C)CC(OC(=O)CSc2ccccc2NC(=O)c2ccccc2F)C2(C)C(C)CCC3(CCC(=O)C32)C(C)C1O (centres unmarked) [Compound 4]	0.5 (≈ 0.823 µM)	0.25 (≈ 0.411 µM)	>64	0.5 (≈ 0.823 µM)	
C=CC1(C)CC(OC(=O)CSc2ccccc2NC(=O)c2cccc(F)c2)C2(C)C(C)CCC3(CCC(=O)C32)C(C)C1O (centres unmarked) [Compound 5, 22-O-[2-(3-fluorobenzamido)phenyl] thioacetyl valnemulin]	0.125 (≈ 0.206 µM)	0.125 (≈ 0.206 µM)	>64	0.125 (≈ 0.206 µM)	
C=CC1(C)CC(OC(=O)CSc2ccccc2NC(=O)c2ccc(F)cc2)C2(C)C(C)CCC3(CCC(=O)C32)C(C)C1O (centres unmarked) [Compound 6, 22-O-[2-(4-fluorobenzamido)phenyl] thioacetyl valnemulin]	1 (≈ 1.65 µM)	0.5 (≈ 0.823 µM)	>64	1 (≈ 1.65 µM)	
C=C[C@]1(C)C[C@@H](OC(=O)CSc2ccccc2NC(=O)c2ccccc2Cl)[C@]2(C)[C@H](C)CC[C@]3(CCC(=O)[C@H]32)[C@@H](C)[C@@H]1O [Compound 7]	0.5 (≈ 0.801 µM)	0.25 (≈ 0.4 µM)	>64	0.5 (≈ 0.801 µM)	
C=CC1(C)CC(OC(=O)CSc2ccccc2NC(=O)c2cccc(Cl)c2)C2(C)C(C)CCC3(CCC(=O)C32)C(C)C1O (centres unmarked) [Compound 8, 22-O-[2-(3-chlorobenzamido)phenyl] thioacetyl valnemulin]	0.25 (≈ 0.4 µM)	0.125 (≈ 0.2 µM)	>64	0.25 (≈ 0.4 µM)	
C=C[C@]1(C)C[C@@H](OC(=O)CSc2ccccc2NC(=O)c2ccc(Cl)cc2)[C@]2(C)[C@H](C)CC[C@]3(CCC(=O)[C@H]32)[C@@H](C)[C@@H]1O [Compound 9]	0.5 (≈ 0.801 µM)	0.25 (≈ 0.4 µM)	>64	0.5 (≈ 0.801 µM)	
C=CC1(C)CC(OC(=O)CSc2ccccc2NC(=O)c2ccccc2OC)C2(C)C(C)CCC3(CCC(=O)C32)C(C)C1O (centres unmarked) [Compound 10, 22-O-[2-(2-methoxybenzamido)phenyl] thioacetyl valnemulin]	1 (≈ 1.61 µM)	0.25 (≈ 0.403 µM)	>64	0.5 (≈ 0.807 µM)	
C=CC1(C)CC(OC(=O)CSc2ccccc2NC(=O)c2cccc(OC)c2)C2(C)C(C)CCC3(CCC(=O)C32)C(C)C1O (centres unmarked) [Compound 11, 22-O-[2-(3-methoxybenzamido)phenyl] thioacetyl valnemulin]	1 (≈ 1.61 µM)	0.25 (≈ 0.403 µM)	>64	1 (≈ 1.61 µM)	
C=C[C@]1(C)C[C@@H](OC(=O)CSc2ccccc2NC(=O)c2ccc(OC)cc2)[C@]2(C)[C@H](C)CC[C@]3(CCC(=O)[C@H]32)[C@@H](C)[C@@H]1O [Compound 12]	1 (≈ 1.61 µM)	0.5 (≈ 0.807 µM)	>64	1 (≈ 1.61 µM)	
C=C[C@]1(C)C[C@@H](OC(=O)CSc2ccccc2N)[C@]2(C)[C@H](C)CC[C@]3(CCC(=O)[C@H]32)[C@@H](C)[C@@H]1O [Compound 13]					MIC [1, 6]: 0.0156 µg/mL (≈ 0.0321 µM); antibacterial activity on staphylococcus (in words) ([1]; comparison with control drugs): obviously superior to that of valnemulin and retapamulin; MIC [2, 5]: 0.0156 µg/mL (≈ 0.0321 µM); MIC (E. Coli ATCC25922; [7]): > 64 µg/mL; MIC [3, 4]: 0.0156 µg/mL (≈ 0.0321 µM); antibacterial activity on methicillin-resistant staphylococcus (in words) ([3]; comparison with control drugs): obviously superior to that of valnemulin and retapamulin
C=C[C@]1(C)C[C@@H](OC(=O)CO)[C@]2(C)[C@H](C)CC[C@]3(CCC(=O)[C@H]32)[C@@H](C)[C@@H]1O [Pleuromutilin]					MIC [1, 6]: 1 µg/mL (≈ 2.64 µM); MIC [2, 5]: 0.0625 µg/mL (≈ 0.165 µM); MIC (E. Coli ATCC25922; [7]): > 64 µg/mL; MIC [3, 4]: 0.5 µg/mL (≈ 1.32 µM)
C=C[C@]1(C)C[C@@H](OC(=O)CS[C@@H]2C[C@H]3CC[C@@H](C2)N3C)[C@]2(C)[C@H](C)CC[C@]3(CCC(=O)[C@H]32)[C@@H](C)[C@@H]1O [Retapamulin, reference compound]					MIC ([1]; ATCC29213, 24 h): 0.0625 µg/mL (≈ 0.121 µM); MIC ([3]; 24 h): 0.0625 µg/mL (≈ 0.121 µM)
C=C[C@]1(C)C[C@@H](OC(=O)CSCCN(CC)CC)[C@]2(C)[C@H](C)CC[C@]3(CCC(=O)[C@H]32)[C@@H](C)[C@@H]1O [Tiamulin, reference compound]					MIC [1, 6]: 0.5 µg/mL (≈ 1.01 µM); MIC [2, 5]: 0.0156 µg/mL (≈ 0.0316 µM); MIC (E. Coli ATCC25922; [7]): > 64 µg/mL; MIC [3, 4]: 0.5 µg/mL (≈ 1.01 µM)
C=C[C@]1(C)C[C@@H](OC(=O)CSC(C)(C)CNC(=O)[C@H](N)C(C)C)[C@]2(C)[C@H](C)CC[C@]3(CCC(=O)[C@H]32)[C@@H](C)[C@@H]1O [Valnemulin, reference compound]					MIC ([1]; ATCC29213, 24 h): 0.0625 µg/mL (≈ 0.111 µM); MIC ([2]; S6, 24 h): 0.0039 µg/mL (≈ 0.0069 µM); MIC (E. Coli ATCC25922; ATCC25922, 24 h): 32 µg/mL (≈ 56.7 µM); MIC ([3]; 24 h): 0.0625 µg/mL (≈ 0.111 µM)
